Experimental data taken from patent US20050277779A1, “Antifungal and antimycobacterial basiliskamides” (priority 1998, published 2005).
≈ marks a conversion by molar mass, not a printed value.

Key:
[1] = system: human tumor cell line; assay: Cytotoxicity testing, cytopathic effect; format: cell-based; set-up: key: 1: slight change in morphology vs. control; 2: occasional rounding, vacuolization, or granularity; 3: rounding, vacuolization, detachment of 50% of cells; 4: destruction of monolayer
Method: (§1) Cytotoxicity Testing of Basiliskamide A: Serial dilutions of basiliskamide A were prepared in cell culture medium and tested for toxicity for normal human fibroblast cells and for human tumor cell line. […] The appearance of the cells was assessed after 48 hours exposure to the compounds. Basiliskamide produced no cytotoxicity for normal human fibroblast cells at concentrations less than 100 μg/ml compared to amphotericin B (ampho) which was toxic at concentrations as low as 25 μg/ml.

[2] = system: normal human fibroblast cells; assay: Cytotoxicity testing, cytopathic effect; format: cell-based; set-up: key to Cytopathic Effect (48 hours): 1: slight change in morphology vs. control; 2: occasional rounding, vacuolization, or granularity; 3: rounding, vacuolization, detachment of 50% of cells; 4: destruction of monolayer; conditions: for Cytopathic Effect (48 hours): Human Fibroblast
Method: as §1

[3] = system: Clinical Isolates of Candida albicans; assay: Macrobroth dilution against 7 clinical isolates
[4] = system: Aspergillus fumigatus; assay: Antifungal macrobroth dilution (NCCLS M27-A); conditions: read-out: Minimal Inhibitory Concentration
[5] = system: Mycobacterium tuberculosis; assay: microbe, parasite or virus in culture; conditions: read-out: Minimal Inhibitory Concentration
Method: (§2) Antimycobacterial Activity of the Basiliskamides: The Basiliskamides were tested for antimycobacierial activity using a standardized agar dilution method (Underlied, C B and Salfinger, S. 1995. In Manual of Clinical Microbiology, Murray, Baron, Pfaller, Tenover, Yolken (Eds.), ASM Press, page 1395-1404).

[6] = system: Candida albicans; assay: Antifungal macrobroth dilution (NCCLS M27-A); conditions: read-out: Minimal Inhibitory Concentration
[7] = system: M. avium-intracellulare; format: cell-based, Mycobacterium avium-infracellulare; conditions: agar dilution
[8] = system: Trichophyton rubrum; assay: Antifungal macrobroth dilution (NCCLS M27-A); conditions: read-out: Minimal Inhibitory Concentration
[9] = system: Aspergillus fumigatus; assay: Antifungal agar dilution
[10] = system: Candida albicans; assay: Antifungal agar dilution
[11] = system: Trichophyton rubrum; assay: Antifungal agar dilution; conditions: read-out: Minimal Inhibitory Concentration
[12] = system: Mycobacterium tuberculosis; conditions: agar dilution
Method: as §2

[13] = read-out: Minimal Inhibitory Concentration

SMILES: C[C@@H]1[C@H](O)[C@@H](C)/C=C/C=C/C=C/C=C/C=C/C=C/C=C/[C@H](O[C@@H]2O[C@H](C)[C@@H](O)[C@H](N)[C@@H]2O)C[C@@H]2O[C@](O)(C[C@@H](O)C[C@@H](O)[C@H](O)CC[C@@H](O)C[C@@H](O)CC(=O)O[C@H]1C)C[C@H](O)[C@H]2C(=O)O [Amphotericin B]
- Cytopathic Effect (48 hours) ([1]; 0.78 μg/ml): 0
- Cytopathic Effect (48 hours) ([1]; 1.57 μg/ml): 0
- Cytopathic Effect (48 hours) ([1]; 3.12 μg/ml): 0
- Cytopathic Effect (48 hours) ([1]; 6.25 μg/ml): 0
- Cytopathic Effect (48 hours) ([1]; 12.5 μg/ml): 0
- Cytopathic Effect (48 hours) ([1]; 25 μg/ml): 1
- Cytopathic Effect (48 hours) ([1]; 50 μg/ml): 3
- Cytopathic Effect (48 hours) ([1]; 100 μg/ml): 4
- Cytopathic Effect (48 hours) ([2]; 0.78 μg/ml): 0
- Cytopathic Effect (48 hours) ([2]; 1.57 μg/ml): 0
- Cytopathic Effect (48 hours) ([2]; 3.12 μg/ml): 0
- Cytopathic Effect (48 hours) ([2]; 6.25 μg/ml): 0
- Cytopathic Effect (48 hours) ([2]; 12.5 μg/ml): 1
- Cytopathic Effect (48 hours) ([2]; 25 μg/ml): 2
- Cytopathic Effect (48 hours) ([2]; 50 μg/ml): 2
- Cytopathic Effect (48 hours) ([2]; 100 μg/ml): 4
- concentrations at which toxic ([2]; normal human fibroblast cells, 48 hours exposure): ≥ 25000 ng/mL
- Minimal Inhibitory Concentration ([3]; C. albicans clinical isolate 8167): 0.5 µg/mL
- Minimal Inhibitory Concentration ([3]; C. albicans clinical isolate 8362): 0.5 µg/mL
- Minimal Inhibitory Concentration ([3]; C. albicans clinical isolate 8363): 0.5 µg/mL
- Minimal Inhibitory Concentration ([3]; C. albicans clinical isolate 8364): 0.5 µg/mL
- Minimal Inhibitory Concentration ([3]; C. albicans clinical isolate 8365): 0.5 µg/mL
- Minimal Inhibitory Concentration ([3]; C. albicans clinical isolate 8366): 0.5 µg/mL
- Minimal Inhibitory Concentration ([3]; C. albicans clinical isolate 8367): 0.5 µg/mL

SMILES: CC[C@@H](C)[C@H](O)[C@H](C)[C@@H](C/C=C/C=C\C(N)=O)OC(=O)/C=C/c1ccccc1 [Basiliskamide B]
- MIC [4]: ≥ 32 µg/mL
- MIC [5]: 50 µg/mL (≈ 130 µM)
- MIC [6]: ≥ 32 µg/mL
- MIC ([7]; Mycobacterium, M. avium-intracellulare, read-out: Minimal Inhibitory Concentration): > 100 µg/mL
- activity against M. avium-intracellulare (in words) [7]: relatively inactive
- MIC [8]: 4 µg/mL (≈ 10.4 µM)
- activity relative to YL-03709B-A ([9]; agar dilution, from Table 5): significantly more active
- MIC [9, 13]: 5 µg/mL (≈ 13 µM)
- activity relative to YL-03709B-A ([10]; agar dilution, from Table 5): significantly more active
- MIC [10, 13]: 3.1 µg/mL (≈ 8.04 µM)
- MIC [11]: 5 µg/mL (≈ 13 µM)
- activity against M. tuberculosis (in words) [12]: have activity
